Like-named read-outs stand apart in the source and are kept apart here.
Legend:
SARS-CoV-2 3CLpro [1] = target: T1, SARS-CoV-2 3CLpro (Severe acute respiratory syndrome coronavirus 2, UniProt P0DTD1); assay: biochemical; assay type: biochemical
SARS-CoV-2 3CLpro [2] = target: T1, SARS-CoV-2 3CLpro; assay: biochemical; assay type: biochemical; conditions: sheet LOPAC_screen_w_protease, primary screen at 5 µM; for inhibition at 5 µM: 4 h
[3] = EC50 with Triton X-100 / EC50 without Triton X-100, ratio greater than 2 suggests aggregation-based inhibitor
[4] = with 0.01% Triton X-100; mean ± SD of triplicate; 4 h, 30 °C; read-out: A) EC50 with Triton X-100
[5] = without Triton X-100; mean ± SD of triplicate; 4 h, 30 °C; read-out: B) EC50 without Triton X-100

Row | SMILES | EC50 (SARS-CoV-2 3CLpro [1]; [4]) | EC50 (SARS-CoV-2 3CLpro [1]; [5]) | Ratio (A/B) (SARS-CoV-2 3CLpro [1]) | other results
1 | C=CCN1CCc2cccc3c2[C@H]1Cc1ccc(O)c(O)c1-3 [R(−)-N-Allylnorapomorphine] | 346 ± 80 nM | 379 ± 83 nM | – | Ratio (A/B) (SARS-CoV-2 3CLpro [1]; [3]): 0.9
2 | O=C(/C=C/c1ccc(O)c(O)c1)OCCc1ccccc1 [Caffeic acid phenethyl ester, reference compound] | > 20000 nM | > 20000 nM | – | inhibition at 5 µM (SARS-CoV-2 3CLpro [2]; mean of two replicates, read-out: mean (LOPAC screen with protease)): 29.6%; inhibition at 5 µM (SARS-CoV-2 3CLpro [2]; replicate 1, read-out: Replicate_1 (LOPAC screen with protease)): 30.7%; inhibition at 5 µM (SARS-CoV-2 3CLpro [2]; replicate 2, read-out: Replicate_2 (LOPAC screen with protease)): 28.6%
3 | CN(C)C(=O)/N=N/C(=O)N(C)C [Diamide] | 17100 ± 20800 nM | > 20000 nM | – | –
4 | CCN(CC)C(=S)SSC(=S)N(CC)CC [Disulfiram] | – | – | – | reduction in levels of inhibition upon addition of 0.01% Triton X-100 (SARS-CoV-2 3CLpro [1]; with vs without 0.01% Triton X-100): > 2 fold
5 | CC(C)(C)c1ccc(S(=O)(=O)/C=C/C#N)cc1 [Bay 11-7085, reference compound] | 1620 ± 103 nM | 807 ± 120 nM | – | Ratio (A/B) (SARS-CoV-2 3CLpro [1]; [3]): 2.0; mean (LOPAC screen with protease) (SARS-CoV-2 3CLpro [2]; mean of two replicates): 90.2992; Replicate_1 (LOPAC screen with protease) (SARS-CoV-2 3CLpro [2]; replicate 1): 92.052; Replicate_2 (LOPAC screen with protease) (SARS-CoV-2 3CLpro [2]; replicate 2): 88.5464
6 | O=C(O)/C=C/c1ccc(O)c(O)c1 [Caffeic Acid] | – | – | – | EC50 (SARS-CoV-2 3CLpro [1]; A) EC50 with Triton X-100): > 20000 nM; EC50 (SARS-CoV-2 3CLpro [1]; B) EC50 without Triton X-100): 5390 ± 1230 nM
7 | CN1CCc2cc(O)c(O)cc2C(c2ccccc2)C1 (centres unmarked) [SKF 75670] | 17800 ± 8360 nM | > 20000 nM | – | –
8 | C[n+]1cc2c3c(ccc2c2ccc4cc5c(cc4c21)OCO5)OCO3 [Sanguinarine] | 1780 ± 497 nM | 2240 ± 586 nM | 0.8 | –
9 | Oc1ccc2c3c1O[C@H]1c4[nH]c5c(c4C[C@@]4(O)[C@@H](C2)N(CC2CC2)CC[C@]314)C[C@@]1(O)[C@H]2Cc3ccc(O)c4c3[C@@]1(CCN2CC1CC1)[C@H]5O4 [nor-Binaltorphimine] | 5200 ± 1160 nM | 2600 ± 1490 nM | – | Ratio (A/B) (SARS-CoV-2 3CLpro [1]; [3]): 2.0
10 | Oc1ccc(C2CNCCc3c2cc(O)c(O)c3Cl)cc1 (centres unmarked) [Fenoldopam] | > 20000 nM | 7190 ± 6080 nM | – | –
11 | CC(Cc1ccc(O)c(O)c1)C(C)Cc1ccc(O)c(O)c1 (centres unmarked) [Nordihydroguaiaretic acid] | 270 ± 58 nM | 214 ± 65 nM | 1.3 | –
12 | N.S=C(S)N1CCCC1 [APDC] | 1230 ± 64 nM | 1520 ± 697 nM | 0.8 | –
13 | CC(=O)NCCc1ccc(O)c(O)c1 [N-Acetyldopamine] | 2650 ± 550 nM | 1450 ± 222 nM | 1.8 | –
14 | Oc1cc2c(c(Cl)c1O)CCNCC2c1ccccc1 (racemic) [(±)-6-Chloro-PB] | 1440 ± 353 nM | 1020 ± 289 nM | 1.4 | –
15 | Br.CCCN1CCc2cc(O)cc3c2[C@H]1Cc1ccc(O)c(O)c1-3 [R(−)-2-OH-NPA, R(−)-2,10,11-Trihydroxy-N-propylnoraporphine] | 746 ± 91 nM | 715 ± 133 nM | – | Ratio (A/B) (SARS-CoV-2 3CLpro [1]; [3]): 1.0
16 | Oc1cc2c(cc1O)[C@H]1c3ccccc3CN[C@@H]1CC2 (racemic) [Dihydrexidine] | 705 ± 153 nM | 622 ± 72 nM | 1.1 | –
17 | CN1CCc2cc(O)cc3c2[C@H]1Cc1ccc(O)c(O)c1-3 [R(−)-2-Hydroxyapomorphine] | 450 ± 78 nM | 420 ± 101 nM | – | Ratio (A/B) (SARS-CoV-2 3CLpro [1]; [3]): 1.1
18 | CC(=O)[C@]1(O)Cc2c(O)c3c(c(O)c2[C@@H](O[C@H]2C[C@H](N)[C@H](O)[C@H](C)O2)C1)C(=O)c1ccccc1C3=O [Idarubicin] | > 20000 nM | > 20000 nM | – | –
19 | Cc1ccc(S(=O)(=O)N[C@@H](Cc2ccccc2)C(=O)CCl)cc1 [TPCK, Tosyl-L-Phe chloromethyl ketone] | 1740 ± 34 nM | 985 ± 175 nM | 1.8 | EC50 (SARS-CoV-2 3CLpro [1]; with 0.01% Triton X-100, read-out: EC50): 1740 nM
20 | NC[C@@H]1O[C@H](C23CC4CC(CC(C4)C2)C3)Cc2c1ccc(O)c2O [A-77636] | – | – | 1.6 | EC50 (SARS-CoV-2 3CLpro [1]; read-out: A) EC50 with Triton X-100): 3790 ± 630 nM; EC50 (SARS-CoV-2 3CLpro [1]; read-out: B) EC50 without Triton X-100): 2340 ± 783 nM
21 | NC1CCc2cc(O)c(O)cc2C1 (centres unmarked) [6,7-ADTN] | 2380 ± 257 nM | 2120 ± 727 nM | 1.1 | –
